The values that follow come from patent US11331299B2, “Medicinal use of serrulatane diterpenes” (The University of Sydney, priority 2016, dated 2022).

One assay deals with T1, PHIP(2) (h) bromodomain (Homo sapiens, UniProt Q8WWQ0).
T1 construct: Bromodomain
In words: Epigenetic binding assay, Bromodomain. The note with it: 10 μM; for inhibition at 10 µM: read-out: % Inhibition of Control Specific Binding.

The next assay addresses T2, SETD7 (h) (Homo sapiens, UniProt Q8WTS6).
T2 sequence (Q8WTS6 1-366): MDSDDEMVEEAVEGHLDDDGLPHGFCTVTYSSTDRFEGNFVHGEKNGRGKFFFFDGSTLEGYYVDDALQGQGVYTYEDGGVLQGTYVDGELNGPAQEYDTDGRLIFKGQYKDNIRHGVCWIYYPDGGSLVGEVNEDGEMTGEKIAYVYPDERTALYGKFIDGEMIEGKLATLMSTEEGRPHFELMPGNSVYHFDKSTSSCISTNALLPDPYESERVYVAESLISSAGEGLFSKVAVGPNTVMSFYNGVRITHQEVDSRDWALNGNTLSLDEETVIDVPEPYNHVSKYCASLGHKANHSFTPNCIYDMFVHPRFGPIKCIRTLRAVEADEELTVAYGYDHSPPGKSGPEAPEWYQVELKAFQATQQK
Kind of assay: Epigenetic enzyme assay, Methyltransferases (MTs). It counts as biochemical. The note with it: for inhibition at 10 µM: read-out: % Inhibition of Control Values.

In the next assay the target is T3, HDAC10 (h) (Homo sapiens, UniProt Q969S8).
T3 sequence (Q969S8 1-669): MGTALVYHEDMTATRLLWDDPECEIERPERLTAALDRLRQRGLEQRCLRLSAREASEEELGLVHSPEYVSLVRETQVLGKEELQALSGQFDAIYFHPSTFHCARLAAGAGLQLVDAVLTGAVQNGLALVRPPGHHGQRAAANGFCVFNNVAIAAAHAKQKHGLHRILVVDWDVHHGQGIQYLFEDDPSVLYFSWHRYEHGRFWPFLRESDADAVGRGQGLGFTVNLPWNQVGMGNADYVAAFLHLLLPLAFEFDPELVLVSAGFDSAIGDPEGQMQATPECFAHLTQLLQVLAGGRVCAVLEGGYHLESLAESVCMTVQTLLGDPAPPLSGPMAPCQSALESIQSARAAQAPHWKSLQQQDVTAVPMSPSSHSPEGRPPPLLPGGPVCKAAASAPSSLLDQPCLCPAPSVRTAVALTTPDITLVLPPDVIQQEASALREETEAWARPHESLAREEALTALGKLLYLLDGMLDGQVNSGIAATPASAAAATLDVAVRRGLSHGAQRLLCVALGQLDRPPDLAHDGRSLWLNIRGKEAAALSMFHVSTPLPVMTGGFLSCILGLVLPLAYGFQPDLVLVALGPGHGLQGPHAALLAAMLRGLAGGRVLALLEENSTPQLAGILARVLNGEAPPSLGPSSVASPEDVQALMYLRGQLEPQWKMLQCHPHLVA
In words: Epigenetic enzyme assay, Histone deacetylase (HDACs). The note with it: read-out: % Inhibition of Control Values. Type of assay: biochemical.

A further assay concerns the target T4, ATAD2B (h) bromodomain (Homo sapiens, UniProt Q9ULI0).
T4 construct: ATAD2B bromodomain; host or cells: E. coli
T4 sequence (Q9ULI0 951-1066 limits assumed): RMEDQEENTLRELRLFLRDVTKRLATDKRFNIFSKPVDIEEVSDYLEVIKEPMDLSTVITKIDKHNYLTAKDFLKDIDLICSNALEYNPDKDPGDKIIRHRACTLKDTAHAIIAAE
In words: Epigenetic binding assay, Bromodomain. The note with it: 10 μM; read-out: % Inhibition of Control Specific Binding.

Another assay addresses T5, JMJD1A (h) (Homo sapiens, UniProt Q9Y4C1).
T5 sequence (Q9Y4C1 1-1321): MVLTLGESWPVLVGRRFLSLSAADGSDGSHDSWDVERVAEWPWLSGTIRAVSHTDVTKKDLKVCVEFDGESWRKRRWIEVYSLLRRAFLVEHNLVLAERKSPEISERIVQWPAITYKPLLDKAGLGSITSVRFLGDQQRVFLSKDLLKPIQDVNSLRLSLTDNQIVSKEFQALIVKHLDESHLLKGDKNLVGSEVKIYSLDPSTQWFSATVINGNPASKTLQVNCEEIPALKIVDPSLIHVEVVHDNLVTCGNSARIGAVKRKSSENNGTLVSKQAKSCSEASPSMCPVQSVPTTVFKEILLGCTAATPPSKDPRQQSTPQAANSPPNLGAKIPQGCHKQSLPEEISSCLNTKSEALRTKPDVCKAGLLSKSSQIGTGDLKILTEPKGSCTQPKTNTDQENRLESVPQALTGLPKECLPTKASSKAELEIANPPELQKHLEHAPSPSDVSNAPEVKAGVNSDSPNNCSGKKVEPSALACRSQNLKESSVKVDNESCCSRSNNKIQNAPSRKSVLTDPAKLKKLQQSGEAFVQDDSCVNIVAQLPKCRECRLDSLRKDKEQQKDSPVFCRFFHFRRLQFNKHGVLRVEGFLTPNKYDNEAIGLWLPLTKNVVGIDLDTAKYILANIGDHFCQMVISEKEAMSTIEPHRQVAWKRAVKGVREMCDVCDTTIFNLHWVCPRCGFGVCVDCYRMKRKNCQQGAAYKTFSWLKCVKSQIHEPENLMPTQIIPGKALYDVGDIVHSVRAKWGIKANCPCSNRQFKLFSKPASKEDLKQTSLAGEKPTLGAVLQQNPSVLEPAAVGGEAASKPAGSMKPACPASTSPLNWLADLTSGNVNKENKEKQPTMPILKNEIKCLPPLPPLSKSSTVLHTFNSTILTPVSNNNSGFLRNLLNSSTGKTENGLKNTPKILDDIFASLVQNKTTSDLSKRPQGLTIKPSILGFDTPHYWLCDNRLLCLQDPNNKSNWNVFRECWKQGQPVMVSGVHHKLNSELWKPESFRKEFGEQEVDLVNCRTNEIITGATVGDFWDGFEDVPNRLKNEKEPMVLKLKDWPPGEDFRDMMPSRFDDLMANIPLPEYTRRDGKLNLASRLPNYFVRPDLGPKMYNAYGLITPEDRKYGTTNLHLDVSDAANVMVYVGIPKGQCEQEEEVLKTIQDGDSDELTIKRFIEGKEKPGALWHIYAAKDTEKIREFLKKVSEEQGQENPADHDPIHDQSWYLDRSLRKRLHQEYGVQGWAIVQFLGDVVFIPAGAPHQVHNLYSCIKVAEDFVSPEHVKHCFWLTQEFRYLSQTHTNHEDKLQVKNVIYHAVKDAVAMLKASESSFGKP
Kind of assay: Epigenetic enzyme assay, Demethylases (KDMs). The note with it: for inhibition at 10 µM: read-out: % Inhibition of Control Values. It counts as biochemical.

A further assay addresses ASH1L (Homo sapiens, UniProt Q9NR48). Kind of assay: Epigenetic enzyme assay, Methyltransferases (MTs). It counts as biochemical. The note with it: for inhibition at 10 µM: read-out: % Inhibition of Control Values.
For a further assay, the target named is T6, BRPF1-1 (h) bromodomain (Homo sapiens, UniProt P55201).
T6 construct: Bromodomain
T6 sequence (P55201 628-732 limits assumed): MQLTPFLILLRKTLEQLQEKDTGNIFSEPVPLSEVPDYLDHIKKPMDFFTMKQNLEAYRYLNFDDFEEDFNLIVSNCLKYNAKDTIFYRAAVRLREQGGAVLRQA
Kind of assay: Epigenetic binding assay, Bromodomain. The note with it: 10 μM; read-out: % Inhibition of Control Specific Binding.

For the next assay, the target named is T7, SMARCA4 (h) bromodomain (Homo sapiens, UniProt P51532).
T7 construct: Bromodomain
In words: Epigenetic binding assay, Bromodomain. Particulars: read-out: % Inhibition of Control Specific Binding.

pIC50: −log10 of the molar value.

T7 sequence (P51532 1453-1564 limits assumed): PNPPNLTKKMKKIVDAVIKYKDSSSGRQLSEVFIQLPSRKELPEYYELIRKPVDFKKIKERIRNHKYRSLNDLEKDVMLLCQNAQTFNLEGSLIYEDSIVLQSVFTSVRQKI

What is called inhibition is the drop in the measured response relative to a control, in per cent. On to `CC(C)=CCC[C@@H]1C(O)Oc2c(C)cc(O)c3c2[C@H]1CC[C@H]3C` (some centres unmarked) [Compound 2, 5,18-epoxyserrulat-14-en-8,18-diol], for which the inhibition at 10 µM at PHIP(2) (h) bromodomain worked out at 30%; at SETD7 (h) it was 16%; at HDAC10 (h), 3%; at ATAD2B (h) bromodomain it was 25%; at JMJD1A (h) (10 μM) it was 37%; at ASH1L, 20%. Besides, the inhibition at 10 µM at BRPF1-1 (h) bromodomain was -25%; on SMARCA4 (h) bromodomain, 16%.
On to `CC(C)=CCC[C@@H]1COc2c(C)cc(O)c3c2[C@H]1CC[C@H]3C` [Compound 3, 5,18-epoxy-8-hydroxyserrulat-14-ene], for which the inhibition at 10 µM was 23% on PHIP(2) (h) bromodomain; -2% on SETD7 (h); 6% on HDAC10 (h); 28% at ATAD2B (h) bromodomain; -1% on JMJD1A (h) (10 μM); -54% on ASH1L. In addition, the figures for the inhibition at 10 µM on BRPF1-1 (h) bromodomain and at SMARCA4 (h) bromodomain were -4% and 13%, respectively.
As usually defined, the pIC50 is −log10 of the IC50, conventionally taken in molar units. On to `CC(C)=CCC[C@H](CO)[C@@H]1CC[C@@H](C)c2c1cc(C)c(O)c2O` [Compound 1, 7,8,18-trihydroxyserrulat-14-ene], for which the “% Inhibition of Control Specific Binding” value on PHIP(2) (h) bromodomain is recorded as “significant inhibitory activity”. For the same molecule, the inhibition at 10 µM turned out to be 61% at PHIP(2) (h) bromodomain; 12% at SETD7 (h); 1% at HDAC10 (h); 52% on ATAD2B (h) bromodomain; 80% on JMJD1A (h) (10 μM); 3% at ASH1L. The values for the inhibition at 10 µM on BRPF1-1 (h) bromodomain and on SMARCA4 (h) bromodomain were -25% and 53%, respectively. Besides, the “% Inhibition of Control Values” on JMJD1A (h) (10 μM) was “significant inhibitory activity”. This molecule gave a pIC50 against JMJD1A (h) (Table 11, inhibition/concentration-response curve) of 5.35.
On to `Nc1ncnc2c1ncn2[C@@H]1O[C@H](CSCC[C@H](N)C(=O)O)[C@@H](O)[C@H]1O` [SAH], for which the negative-log IC50 (pIC50) is 4.62 at SETD7 (h) (read-out: Reference IC50) and 5.04 on ASH1L (read-out: Reference IC50).
